From ChEMBL document CHEMBL2429817, “Trisubstituted imidazoles as positive modulators of metabotropic glutamate receptor subtype 5” (ACS Med Chem Lett, 2013) come the findings set out here.

pEC50: −log10 of the molar value.

The test deals with Metabotropic glutamate receptor 5 (Homo sapiens, UniProt P41594). Briefly: Positive modulation of human recombinant mGluR5 expressed in HEK293A cells by calcium based FLIPR assay. In kind it is functional, cell-based, HEK293-A.
Metabotropic glutamate receptor 5, sequence (P41594 whole entry): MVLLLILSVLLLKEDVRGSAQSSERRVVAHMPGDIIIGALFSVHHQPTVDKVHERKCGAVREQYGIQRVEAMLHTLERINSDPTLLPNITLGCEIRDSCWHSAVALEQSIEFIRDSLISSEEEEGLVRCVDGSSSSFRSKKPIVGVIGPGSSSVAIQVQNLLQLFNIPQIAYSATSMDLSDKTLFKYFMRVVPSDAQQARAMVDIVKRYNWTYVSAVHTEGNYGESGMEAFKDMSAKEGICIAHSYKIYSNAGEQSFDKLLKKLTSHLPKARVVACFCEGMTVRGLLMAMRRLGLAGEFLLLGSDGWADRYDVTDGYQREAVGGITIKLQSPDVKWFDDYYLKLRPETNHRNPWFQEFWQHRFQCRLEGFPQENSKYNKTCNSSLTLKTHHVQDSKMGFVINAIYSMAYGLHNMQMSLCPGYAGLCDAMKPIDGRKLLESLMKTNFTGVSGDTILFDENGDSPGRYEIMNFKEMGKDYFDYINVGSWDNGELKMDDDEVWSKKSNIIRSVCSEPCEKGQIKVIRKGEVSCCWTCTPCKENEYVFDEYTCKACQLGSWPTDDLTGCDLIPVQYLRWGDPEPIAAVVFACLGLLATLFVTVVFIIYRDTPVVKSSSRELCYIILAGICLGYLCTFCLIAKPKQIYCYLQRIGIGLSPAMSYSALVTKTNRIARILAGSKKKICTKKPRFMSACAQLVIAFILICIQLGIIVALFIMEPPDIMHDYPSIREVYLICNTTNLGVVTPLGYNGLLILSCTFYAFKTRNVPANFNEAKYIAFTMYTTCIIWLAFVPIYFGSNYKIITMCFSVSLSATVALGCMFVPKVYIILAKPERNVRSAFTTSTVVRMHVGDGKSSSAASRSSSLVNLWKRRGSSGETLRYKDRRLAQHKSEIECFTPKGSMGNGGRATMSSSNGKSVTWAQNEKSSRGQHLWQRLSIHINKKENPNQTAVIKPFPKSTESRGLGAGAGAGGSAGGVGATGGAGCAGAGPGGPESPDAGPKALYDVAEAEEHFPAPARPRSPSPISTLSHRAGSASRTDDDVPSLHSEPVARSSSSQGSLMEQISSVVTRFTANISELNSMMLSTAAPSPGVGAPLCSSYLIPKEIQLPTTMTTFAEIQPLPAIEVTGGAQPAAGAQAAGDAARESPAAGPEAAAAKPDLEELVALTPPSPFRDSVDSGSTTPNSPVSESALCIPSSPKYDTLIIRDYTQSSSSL

As for `CC1=NC2CCN(C(=O)Cn3cc(-c4ccc(F)c(C)c4)nc3-c3ccc(F)cc3)CC2O1` (centres undefined), the pEC50 was 7.40.
As for `CC1=NC2CCN(C(=O)Cn3cc(-c4ccc(F)c(C)c4)nc3-c3ccccc3)CC2O1` (centres undefined), the pEC50 was 7.05.
In the case of `Cc1cc(-c2cn(CC(=O)N3CCN(c4ccccn4)CC3)c(-c3ccc(F)cc3)n2)ccc1F` it was 7.28.
For `Cc1cc(-c2cn(CC(=O)N3CCN(c4cccnn4)CC3)c(-c3ccccc3)n2)ccc1F`, the pEC50 is 6.07.
